ChEMBL document CHEMBL3885881, “DrugMatrix”

Species: Rattus norvegicus
Test: DrugMatrix - Regimen: Daily Repeat
Format: toxicity, organism-based, Sprague-Dawley
Set-up: regimen Daily Repeat, gender Male, age 6-8 weeks
Details: in vivo, iv, vehicle 100 % SALINE; for ABSOLUTE BASOPHIL / ABSOLUTE EOSINOPHIL / ABSOLUTE LYMPHOCYTE / ABSOLUTE MONOCYTE / ABSOLUTE SEGMENTED NEUTROPHIL / BASOPHIL / EOSINOPHIL / ERYTHROCYTE COUNT / HEMATOCRIT / HEMOGLOBIN / LEUKOCYTE COUNT / LYMPHOCYTE / MEAN CORPUSCULAR HEMOGLOBIN / MEAN CORPUSCULAR HEMOGLOBIN CONCENTRATION / MEAN CORPUSCULAR VOLUME / MONOCYTE / NEUTROPHIL / NUCLEATED RED BLOOD CELLS / PLATELET COUNT: tissue Blood; for ALANINE AMINOTRANSFERASE / ALBUMIN / ALKALINE PHOSPHATASE / ASPARTATE AMINOTRANSFERASE / BLOOD UREA NITROGEN / CARBON DIOXIDE / CHLORIDE / CHOLESTEROL / CREATINE PHOSPHOKINASE / CREATININE / GLUCOSE / LACTATE DEHYDROGENASE / LIPASE / PHOSPHORUS / POTASSIUM / SODIUM / TOTAL BILIRUBIN / TOTAL PROTEIN / URIC ACID: tissue Plasma
[1] = 23 mg/kg, 120 h, dose level Low, time 5 day
[2] = 487 mg/kg, 72 h, dose level High, time 3 day
[3] = 487 mg/kg, 120 h, dose level High, time 5 day

For Nc1ccn([C@@H]2O[C@H](CO)[C@@H](O)[C@@H]2O)c(=O)n1 [CYTARABINE], the “ABSOLUTE BASOPHIL” value [1] was 0 CELLS/uL, the “ABSOLUTE EOSINOPHIL” value [1] was 0 CELLS/uL and the “ABSOLUTE LYMPHOCYTE” value [1] was 5539 CELLS/uL. The “ABSOLUTE MONOCYTE” value [1] was 16.67 CELLS/uL, the “ABSOLUTE SEGMENTED NEUTROPHIL” value [1] was 244.33 CELLS/uL and the BASOPHIL [1] was 0%. For the same molecule, the EOSINOPHIL [1] was 0%, the “ERYTHROCYTE COUNT” value [1] was 5.12 x10E6/uL and the HEMATOCRIT [1] was 33.83%. For the same molecule, the HEMOGLOBIN [1] was 13.53 G/DL, the “LEUKOCYTE COUNT” value [1] was 5.8 x10E3/uL and the LYMPHOCYTE [1] was 95%. For the same molecule, the “MEAN CORPUSCULAR HEMOGLOBIN” value [1] was 26.47 pg, the “MEAN CORPUSCULAR HEMOGLOBIN CONCENTRATION” value [1] was 40 G/DL and the “MEAN CORPUSCULAR VOLUME” value [1] was 66.2 fL. For the same molecule, the MONOCYTE [1] was 0.33%, the NEUTROPHIL [1] was 4.67% and the “NUCLEATED RED BLOOD CELLS” value [1] was 0 /100WBC. For the same molecule, the “PLATELET COUNT” value [1] was 1095.67 x10E3/uL, the “ALANINE AMINOTRANSFERASE” value [1] was 41.67 u/L and the ALBUMIN [1] was 4.1 G/DL. For the same molecule, the “ALKALINE PHOSPHATASE” value [1] was 306.67 u/L, the “ASPARTATE AMINOTRANSFERASE” value [1] was 78.33 u/L and the “BLOOD UREA NITROGEN” value [1] was 12.67 mg/dL. The “CARBON DIOXIDE” value [1] was 26.33 mmol/L, the CHLORIDE [1] was 99.33 MEQ/L and the CHOLESTEROL [1] was 67.67 mg/dL. For the same molecule, the “CREATINE PHOSPHOKINASE” value [1] was 261.33 u/L, the CREATININE [1] was 0.21 mg/dL and the GLUCOSE [1] was 172 mg/dL. For the same molecule, the “LACTATE DEHYDROGENASE” value [1] was 75 u/L, the LIPASE [1] was 11.33 u/L and the PHOSPHORUS [1] was 10.17 mg/dL. The POTASSIUM [1] was 5.08 MEQ/L, the SODIUM [1] was 144.13 MEQ/L and the “TOTAL BILIRUBIN” value [1] was 0.17 mg/dL. For the same molecule, the “TOTAL PROTEIN” value [1] was 5.77 G/DL, the “URIC ACID” value [1] was 0.87 mg/dL and the “ABSOLUTE BASOPHIL” value [2] was 0 CELLS/uL. For the same molecule, the “ABSOLUTE EOSINOPHIL” value [2] was 62 CELLS/uL, the “ABSOLUTE LYMPHOCYTE” value [2] was 7623.33 CELLS/uL and the “ABSOLUTE MONOCYTE” value [2] was 62 CELLS/uL. The “ABSOLUTE SEGMENTED NEUTROPHIL” value [2] was 686 CELLS/uL, the BASOPHIL [2] was 0% and the EOSINOPHIL [2] was 0.67%. The “ERYTHROCYTE COUNT” value [2] was 4.4 x10E6/uL, the HEMATOCRIT [2] was 28.67% and the HEMOGLOBIN [2] was 11.3 G/DL. For the same molecule, the “LEUKOCYTE COUNT” value [2] was 8.43 x10E3/uL, the LYMPHOCYTE [2] was 91.33% and the “MEAN CORPUSCULAR HEMOGLOBIN” value [2] was 25.7 pg. For the same molecule, the “MEAN CORPUSCULAR HEMOGLOBIN CONCENTRATION” value [2] was 39.4 G/DL, the “MEAN CORPUSCULAR VOLUME” value [2] was 65.13 fL and the MONOCYTE [2] was 0.67%. The NEUTROPHIL [2] was 7.33%, the “NUCLEATED RED BLOOD CELLS” value [2] was 0 /100WBC and the “PLATELET COUNT” value [2] was 1093.33 x10E3/uL. The “ALANINE AMINOTRANSFERASE” value [2] was 45.67 u/L, the ALBUMIN [2] was 4.07 G/DL and the “ALKALINE PHOSPHATASE” value [2] was 302.33 u/L. For the same molecule, the “ASPARTATE AMINOTRANSFERASE” value [2] was 81.33 u/L, the “BLOOD UREA NITROGEN” value [2] was 12 mg/dL and the “CARBON DIOXIDE” value [2] was 31 mmol/L. The CHLORIDE [2] was 101.67 MEQ/L, the CHOLESTEROL [2] was 77.67 mg/dL and the “CREATINE PHOSPHOKINASE” value [2] was 242.33 u/L. For the same molecule, the CREATININE [2] was 0.19 mg/dL, the GLUCOSE [2] was 168.33 mg/dL and the “LACTATE DEHYDROGENASE” value [2] was 55.33 u/L. For the same molecule, the LIPASE [2] was 10.67 u/L, the PHOSPHORUS [2] was 10.87 mg/dL and the POTASSIUM [2] was 5.4 MEQ/L. For the same molecule, the SODIUM [2] was 145.23 MEQ/L, the “TOTAL BILIRUBIN” value [2] was 0.2 mg/dL and the “TOTAL PROTEIN” value [2] was 5.93 G/DL. The “URIC ACID” value [2] was 0.8 mg/dL, the “ABSOLUTE BASOPHIL” value [3] was 0 CELLS/uL and the “ABSOLUTE EOSINOPHIL” value [3] was 10 CELLS/uL. The “ABSOLUTE LYMPHOCYTE” value [3] was 3604.33 CELLS/uL, the “ABSOLUTE MONOCYTE” value [3] was 0 CELLS/uL and the “ABSOLUTE SEGMENTED NEUTROPHIL” value [3] was 152.33 CELLS/uL. For the same molecule, the BASOPHIL [3] was 0%, the EOSINOPHIL [3] was 0.33% and the “ERYTHROCYTE COUNT” value [3] was 4.2 x10E6/uL. The HEMATOCRIT [3] was 26.53%, the HEMOGLOBIN [3] was 10.7 G/DL and the “LEUKOCYTE COUNT” value [3] was 3.77 x10E3/uL. The LYMPHOCYTE [3] was 95.67%, the “MEAN CORPUSCULAR HEMOGLOBIN” value [3] was 25.43 pg and the “MEAN CORPUSCULAR HEMOGLOBIN CONCENTRATION” value [3] was 40.37 G/DL. The “MEAN CORPUSCULAR VOLUME” value [3] was 63.07 fL, the MONOCYTE [3] was 0% and the NEUTROPHIL [3] was 4%. For the same molecule, the “NUCLEATED RED BLOOD CELLS” value [3] was 0 /100WBC, the “PLATELET COUNT” value [3] was 1216.67 x10E3/uL and the “ALANINE AMINOTRANSFERASE” value [3] was 41.67 u/L. The ALBUMIN [3] was 4.1 G/DL, the “ALKALINE PHOSPHATASE” value [3] was 275.33 u/L and the “ASPARTATE AMINOTRANSFERASE” value [3] was 82.33 u/L. For the same molecule, the “BLOOD UREA NITROGEN” value [3] was 13.33 mg/dL, the “CARBON DIOXIDE” value [3] was 26 mmol/L and the CHLORIDE [3] was 100.67 MEQ/L. The CHOLESTEROL [3] was 71.33 mg/dL, the “CREATINE PHOSPHOKINASE” value [3] was 326 u/L and the CREATININE [3] was 0.23 mg/dL. For the same molecule, the GLUCOSE [3] was 159 mg/dL, the “LACTATE DEHYDROGENASE” value [3] was 65 u/L and the LIPASE [3] was 11 u/L. For the same molecule, the PHOSPHORUS [3] was 9.23 mg/dL, the POTASSIUM [3] was 5.41 MEQ/L and the SODIUM [3] was 145.37 MEQ/L. For the same molecule, the “TOTAL BILIRUBIN” value [3] was 0.2 mg/dL, the “TOTAL PROTEIN” value [3] was 5.7 G/DL and the “URIC ACID” value [3] was 0.57 mg/dL.
